Assay results taken from patent US20260256792A1, “TREATMENT OF CHRONIC SPONTANEOUS URTICARIA BY ADMINISTERING (R)-2-[3-[4-AMINO-3-(2-FLUORO-4-PHENOXY-PHENYL)PYRAZOLO[3,4-D]PYRIMIDIN-1-YL]PIPERIDINE-1-CARBONYL]-4-METHYL-4-[4-(OXETAN-3-YL)PIPERAZIN-1-YL]PENT-2-ENENITRILE” (priority 2023, published 2026).

System: moderate-to-severe chronic spontaneous urticaria (CSU)
Experiment: Phase 2 CSU study: urticaria activity score over 7 days (UAS7)
Type: in vivo, human
Conditions: Omalizumab-Naïve
Excerpt: The study comprises a 12 week, randomized, double-blind, placebo-controlled, multi-center, dose-ranging efficacy and safety phase, followed by a 40 week open label extension (OLE) phase (see FIG. 1). The study consists of three phases and an optional OLE phase. […] Clinically, CSU is characterized by the spontaneous and recurrent appearance of pruritic hives. The proposed primary endpoints were the UAS7 at Week 12 in EU and EU reference countries and the ISS7 in the US. Regardless of where a participant was from, all assessments were the same. The UAS7 score is a composite score containing both the HSS7 and the ISS7. This allowed a global assessment of the two key components of urticaria: hives and itch. […] The UAS is a validated PRO measure. […] The daily UAS scores range from 0 to 6 point/day. […] Patients were to complete the UAS using the e-diary. […] The following secondary endpoints were to be analyzed using the same approach as for the primary endpoint: • Change from baseline in UAS7 at Week 4 • Change from baseline in UAS7 at Week 12 (for US and US reference countries) • Change from baseline in ISS7 at Week 12 (except US and US reference countries) • Change from baseline in HSS7 at Week 12 The following responder secondary endpoints were to be analyzed using the Cochran-Mantel-Haenszel test adjusted by region: • Proportion of participants with UAS7<6 at Week 12 • Proportion of participants with UAS7=0 at Week 12 Participants who received selected prohibited medications and/or rescue medications were to be considered as non-responders for time points after the medication usage. For other participants, all available data including those collected during the off-treatment period were to be used to determine the responder/non-responder status. Missing data were to be considered as non-responders.

[1] = Age group (years) ≥44 (Median), 400 mg QPM
[2] = Age group (years) ≥44 (Median), 400 mg TID
[3] = Age group (years) ≥65, 400 mg BID
[4] = Age group (years) ≥65, 400 mg QPM
[5] = Age group (years) ≥65, 400 mg TID
[6] = Baseline BHRA BHRA+, 400 mg BID
[7] = Baseline BHRA BHRA+, 400 mg QPM
[8] = Baseline BHRA BHRA+, 400 mg TID
[9] = Baseline BHRA BHRA−, 400 mg BID
[10] = Baseline BHRA BHRA−, 400 mg QPM
[11] = Baseline BHRA BHRA−, 400 mg TID
[12] = Baseline Eosinophils (10^9/L) <0.150, 400 mg BID
[13] = Baseline Eosinophils (10^9/L) <0.150, 400 mg TID
[14] = Baseline Eosinophils (10^9/L) <0.165 (Median), 400 mg BID
[15] = Baseline Eosinophils (10^9/L) <0.165 (Median), 400 mg QPM
[16] = Baseline Eosinophils (10^9/L) <0.165 (Median), 400 mg TID
[17] = Baseline Eosinophils (10^9/L) <0.3, 400 mg BID
[18] = Baseline Eosinophils (10^9/L) <0.3, 400 mg QPM
[19] = Baseline Eosinophils (10^9/L) <0.3, 400 mg TID
[20] = Baseline Eosinophils (10^9/L) ≥0.150, 400 mg BID
[21] = Baseline Eosinophils (10^9/L) ≥0.150, 400 mg TID
[22] = Baseline Eosinophils (10^9/L) ≥0.165 (Median), 400 mg BID
[23] = Baseline Eosinophils (10^9/L) ≥0.165 (Median), 400 mg QPM
[24] = Baseline Eosinophils (10^9/L) ≥0.165 (Median), 400 mg TID

CC(C)(C=C(C#N)C(=O)N1CCC[C@@H](n2nc(-c3ccc(Oc4ccccc4)cc3F)c3c(N)ncnc32)C1)N1CCN(C2COC2)CC1 [rilzabrutinib, (R)-2-[3-[4-amino-3-(2-fluoro-4-phenoxy-phenyl)pyrazolo[3,4-d]pyrimidin-1-yl]piperidine-1-carbonyl]-4-methyl-4-[4-(oxetan-3-yl)piperazin-1-yl]pent-2-enenitrile]
Change from Baseline in UAS7 at Week 12: LS Mean Diff vs. placebo (95% CI) [1]: 2.72 (−5.76, 11.20)
Change from Baseline in UAS7 at Week 12: Mean (SD) [1]: −10.71 (7.99)
Change from Baseline in UAS7 at Week 12: LS Mean (SE) [2]: −17.54 (2.39)
Change from Baseline in UAS7 at Week 12: LS Mean Diff vs. placebo (95% CI) [2]: −5.98 (−13.92, 1.95)
Change from Baseline in UAS7 at Week 12: Mean (SD) [2]: −19.17 (11.98)
Change from Baseline in UAS7 at Week 12: LS Mean (SE) [3]: −21.85 (10.98)
Change from Baseline in UAS7 at Week 12: Mean (SD) [3]: −29.00 (NC)^
Change from Baseline in UAS7 at Week 12: LS Mean (SE) [4]: −1.73 (17.36)
Change from Baseline in UAS7 at Week 12: LS Mean Diff vs. placebo (95% CI) [4]: −3.19 (−44.28, 37.89)
Change from Baseline in UAS7 at Week 12: Mean (SD) [4]: −16.33 (NC) ^
Change from Baseline in UAS7 at Week 12: LS Mean (SE) [5]: −23.81 (7.07)
Change from Baseline in UAS7 at Week 12: Mean (SD) [5]: −24.13 (14.17)
Change from Baseline in UAS7 at Week 12: LS Mean (SE) [6]: −19.58 (5.46)
Change from Baseline in UAS7 at Week 12: LS Mean Diff vs. placebo (95% CI) [6]: −10.09 (−27.02, 6.84)
Change from Baseline in UAS7 at Week 12: Mean (SD) [6]: −19.50 (10.03)
Change from Baseline in UAS7 at Week 12: LS Mean (SE) [7]: −17.03 (6.45)
Change from Baseline in UAS7 at Week 12: LS Mean Diff vs. placebo (95% CI) [7]: −7.53 (−24.53, 9.46)
Change from Baseline in UAS7 at Week 12: Mean (SD) [7]: −19.94 (5.28)
Change from Baseline in UAS7 at Week 12: LS Mean (SE) [8]: −22.12 (5.72)
Change from Baseline in UAS7 at Week 12: LS Mean Diff vs. placebo (95% CI) [8]: −12.63 (−29.25, 4.00)
Change from Baseline in UAS7 at Week 12: Mean (SD) [8]: −22.13 (16.40)
Change from Baseline in UAS7 at Week 12: LS Mean (SE) [9]: −12.39 (2.21)
Change from Baseline in UAS7 at Week 12: LS Mean Diff vs. placebo (95% CI) [9]: −2.42 (−8.35, 3.52)
Change from Baseline in UAS7 at Week 12: LS Mean (SE) [10]: −8.95 (2.08)
Change from Baseline in UAS7 at Week 12: LS Mean Diff vs. placebo (95% CI) [10]: 1.02 (−4.73, 6.78)
Change from Baseline in UAS7 at Week 12: Mean (SD) [10]: −9.96 (9.08)
Change from Baseline in UAS7 at Week 12: LS Mean (SE) [11]: −16.51 (2.11)
Change from Baseline in UAS7 at Week 12: LS Mean Diff vs. placebo (95% CI) [11]: −6.53 (−12.28, −0.79)
Change from Baseline in UAS7 at Week 12: Mean (SD) [11]: −18.52 (10.75)
Change from Baseline in UAS7 at Week 12: LS Mean Diff vs. placebo (95% CI) (Baseline BMI (kg/m^2) ≥30, 400 mg BID): −1.65 (−13.49, 10.19)
Change from Baseline in UAS7 at Week 12: LS Mean Diff vs. placebo (95% CI) (Baseline BMI (kg/m^2) ≥30, 400 mg QPM): −0.43 (−11.59, 10.72)
Change from Baseline in UAS7 at Week 12: LS Mean Diff vs. placebo (95% CI) (Baseline BMI (kg/m^2) ≥30, 400 mg TID): −7.58 (−20.66, 5.50)
Change from Baseline in UAS7 at Week 12: LS Mean (SE) [12]: −13.60 (3.19)
Change from Baseline in UAS7 at Week 12: LS Mean Diff vs. placebo (95% CI) [12]: −0.54 (−8.95, 7.87)
Change from Baseline in UAS7 at Week 12: LS Mean (SE) [13]: −20.09 (3.11)
Change from Baseline in UAS7 at Week 12: LS Mean Diff vs. placebo (95% CI) [13]: −7.04 (−15.34, 1.27)
Change from Baseline in UAS7 at Week 12: LS Mean (SE) [14]: −14.30 (2.83)
Change from Baseline in UAS7 at Week 12: LS Mean Diff vs. placebo (95% CI) [14]: −1.83 (−9.50, 5.84)
Change from Baseline in UAS7 at Week 12: Mean (SD) [14]: −11.24 (8.98)
Change from Baseline in UAS7 at Week 12: LS Mean (SE) [15]: −7.71 (2.71)
Change from Baseline in UAS7 at Week 12: LS Mean Diff vs. placebo (95% CI) [15]: 4.76 (−2.75, 12.26)
Change from Baseline in UAS7 at Week 12: Mean (SD) [15]: 9.46 (8.63)
Change from Baseline in UAS7 at Week 12: LS Mean (SE) [16]: −19.82 (2.96)
Change from Baseline in UAS7 at Week 12: LS Mean Diff vs. placebo (95% CI) [16]: −7.36 (−15.23, 0.52)
Change from Baseline in UAS7 at Week 12: Mean (SD) [16]: −21.57 (13.01)
Change from Baseline in UAS7 at Week 12: LS Mean (SE) [17]: −15.05 (2.31)
Change from Baseline in UAS7 at Week 12: LS Mean Diff vs. placebo (95% CI) [17]: −4.89 (−11.04, 1.26)
Change from Baseline in UAS7 at Week 12: Mean (SD) [17]: −14.90 (12.30)
Change from Baseline in UAS7 at Week 12: LS Mean (SE) [18]: −9.19 (2.15)
Change from Baseline in UAS7 at Week 12: LS Mean Diff vs. placebo (95% CI) [18]: 0.97 (−5.00, 6.93)
Change from Baseline in UAS7 at Week 12: Mean (SD) [18]: −10.75 (8.91)
Change from Baseline in UAS7 at Week 12: LS Mean (SE) [19]: −18.29 (2.31)
Change from Baseline in UAS7 at Week 12: LS Mean Diff vs. placebo (95% CI) [19]: −8.14 (−14.29, −1.98)
Change from Baseline in UAS7 at Week 12: Mean (SD) [19]: −19.99 (12.00)
Change from Baseline in UAS7 at Week 12: LS Mean (SE) [20]: −14.57 (2.57)
Change from Baseline in UAS7 at Week 12: LS Mean Diff vs. placebo (95% CI) [20]: −7.68 (−15.25, −0.11)
Change from Baseline in UAS7 at Week 12: LS Mean (SE) [21]: −14.80 (2.58)
Change from Baseline in UAS7 at Week 12: LS Mean Diff vs. placebo (95% CI) [21]: −7.92 (−15.27, −0.56)
Change from Baseline in UAS7 at Week 12: LS Mean (SE) [22]: −14.13 (2.87)
Change from Baseline in UAS7 at Week 12: LS Mean Diff vs. placebo (95% CI) [22]: −7.01 (−15.24, 1.22)
Change from Baseline in UAS7 at Week 12: Mean (SD) [22]: −17.73 (14.16)
Change from Baseline in UAS7 at Week 12: LS Mean (SE) [23]: −10.83 (2.83)
Change from Baseline in UAS7 at Week 12: LS Mean Diff vs. placebo (95% CI) [23]: −3.71 (−11.80, 4.38)
Change from Baseline in UAS7 at Week 12: Mean (SD) [23]: −11.84 (10.30)
Change from Baseline in UAS7 at Week 12: LS Mean (SE) [24]: −14.63 (2.71)
Change from Baseline in UAS7 at Week 12: LS Mean Diff vs. placebo (95% CI) [24]: −7.52 (−15.32, 0.28)
